Key:
explanted bones = experiment: PGE2 release from explanted fetal rat bones; format: cell-based
[1] = tested on: bone cells (particularly osteoclasts); experiment: histology of cultured rat bones (toxicity to bone cells); format: cell-based
From the text: Samples of cultured rat bones used in experiments previously described herein were fixed, decalcified and stained with hematoxylin and eosin. Histologic sections were examined by light microscopy.

[2] = tested on: bone mineral (metaphysis); experiment: gallium incorporation into bone mineral, X-ray diffraction; format: in vivo, rats
From the text: Conceivably, gallium promotes or stabilizes crystal structure to produce matrix with more crystalline hydroxyapatite, or the drug promotes growth rather than dissolution of smaller crystallites.

[3] = resorption of devitalized bone particles from treated rats; details: particles from treated rats vs controls
From the text: Devitalized bone particles (i.e. bones containing only mineral and matrix without any cellular component) were studied.

[4] = oral absorption and excretion of gallium nitrate in the dog; format: in vivo; details: for plasma gallium concentration: single oral dose 1200 mg by gavage
Description: To evaluate the oral absorption and excretion of gallium nitrate, a concentrated solution of the drug was administered to a dog by oral gavage (total dose=1200 mg). Sequential plasma samples and the next 24 hour urinary volume were collected and assayed for gallium concentration by a flameless atomic absorption sprectrophotometer (Kelsen, D. P. et al, Cancer 46:2009, 1980).
The subsequent 24 hour urine volume was 183 ml and it contained a total amount of 1.13 mg of elemental gallium. Assuming similar patterns of excretion in humans and dogs, it is estimated that approximately 0.5-2% of an orally administered dose is absorbed and excreted into the urine.

calcium metabolism = experiment: metabolic study of patients receiving gallium nitrate (calcium homeostasis); format: in vivo
From the text: (§1) As with most anticancer drugs, gallium can potentially cause serious toxicity. The most serious side-effect being kidney damage. […] Furthermore, the anti bone-resorptive effects of gallium nitrate are achieved with less than 25-50% of the anticancer dose. Thus the method should retain safety and efficacy for prolonged periods of time.
Experimental Results: Studies of calcium homeostasis require an assessment of multiple factors including dietary intake, excretion of calcium into urine and stool, and analysis of calcium mobilization from body stores (chiefly bone). Four patients who participated in a careful study of the effects of gallium nitrate upon calcium metabolism were thus assessed. Patients were hospitalized and received a diet of defined calcium, sodium, and fluid intake. Measurements of calcium excretion into urine and stool (along with multiple other laboratory tests) were made daily during a 6-day baseline period and during a subsequent treatment period using gallium nitrate. The drug was administered as a continuous infusion at a dose of 300 mg/sq m/day for durations ranging from 4-7 days.

bone turnover = bone turnover in a patient with multiple myeloma and extensive bone destruction; format: in vivo; details: 200 mg/sq m/d×7 d infusion; for urine OH--Proline: previous 95.4; for urine Calcium: previous 618; for urine Phosphorus: previous 1630; for Urine Volume: previous 3640
Description: Summary: Patients with bone metastasis suffer progressive erosion of bone which causes pain, immobilization and fractures. Clinically, bone metastases are evaluated by sequential x-rays over a period of months to years. Other measures have recently been employed to measure bone turnover in patients with both cancer and non-cancerous bone resorption. In general, increased bone turnover is associated with increased loss of calcium into the urine and with increased excretion of hydroxyproline ([…]). Measurements of these parameters have been used to assess whether a new drug affects bone resorption (Siris, E. S. et al, New Engl J Med 302:310, 1980). We recently measured these parameters in a patient with multiple myeloma and extensive bone destruction who received gallium nitrate (200 mg/sq m/d×7 d by infusion).

kidney = experiment: clinical toxicity of gallium (kidney damage, long-term infusion); format: in vivo, patients; details: printed 22+ months
From the text: as §1

animal and human tumors = details: certain animal and human tumors; Warrell 1983, Adamson 1975; cited from earlier work
[5] = intravenous infusion, clinical dose; Kelsen et al 1980; cited from earlier work
[6] = 4 patients, continuous infusion 300 mg/sq m/day, 4-7 days

For `O=[N+]([O-])[O-].O=[N+]([O-])[O-].O=[N+]([O-])[O-].[Ga+3]` [gallium nitrate], the “PGE2 release from explanted bones” value (explanted bones; 10 mcg/ml, 24-48 h, vs non-treated bones) was “no change in PGE2 over control”, the PGE2 release (explanted bones; 48 h preincubation, 1, 5 and 10 mcg/ml) was “no significant change in PGE2 release” and the PGE2 (explanted bones; PTH, gallium 1 mcg/ml, 48 h preincubation, 0 gallium: 1.4, control 1.2) was 2.2 ng/bone. The PGE2 (explanted bones; PTH, gallium 5 mcg/ml, 48 h preincubation, 0 gallium: 1.4, control 1.2) was 1.3 ng/bone, the PGE2 (explanted bones; PTH, gallium 10 mcg/ml, 48 h preincubation, 0 gallium: 1.4, control 1.2) was 3.9 ng/bone and the “PGE2 release of gallium treated bones on exposure to lymphokine, but not PTH” value (explanted bones; gallium treated bones exposed to lymphokine) was “significant increase in PGE2 release”. The PGE2 (explanted bones; lymphokine, gallium 1 mcg/ml, 48 h preincubation, 0 gallium: 17.1, control 2.0) was 17.4 ng/bone, the PGE2 (explanted bones; lymphokine, gallium 5 mcg/ml, 48 h preincubation, 0 gallium: 17.1, control 2.0) was 16.7 ng/bone and the PGE2 (explanted bones; lymphokine, gallium 10 mcg/ml, 48 h preincubation, 0 gallium: 17.1, control 2.0) was 15.1 ng/bone. The “lethal toxicity to bone cells” value ([1]; pharmacologic concentrations) was “do not cause lethal toxicity to bone cells”, the “cellular components (histology)” value ([1]; pharmacologic concentrations, 72 hrs, compared with mithramycin-treated bones) was “normal cellular components” and the bone cell morphology ([1]; relative to untreated control bones, 72 hrs) was “no differences in bone cell morphology”. The “crystal size in metaphyseal-derived particles (X-ray diffraction)” value ([2]; gallium treated animals vs controls) was “marked increase in crystal size”, the “gallium incorporation into bone” value ([2]; rats treated with gallium nitrate) was “incorporated into the bone metaphysis where more active bone mineral turnover was occurring and into the metabolically more active crystalline pool” and the “susceptibility of devitalized bone particles to resorption” value [3] was “significantly less susceptible to resorption than controls”. The “oral gallium nitrate dose estimated to achieve effective plasma levels” value ([4]; 70 kg human, extrapolated from dog data) was 0.5-20 gms, the toxic reaction ([4]; dog, oral 1200 mg) was “no toxic reaction” and the “total amount of elemental gallium in urine” value ([4]; dog, oral 1200 mg, 24 hour urine) was 1.13 mg. The plasma gallium concentration ([4]; dog, 0 hrs) was 0 µg/mL, the plasma gallium concentration ([4]; dog, 0.25 hrs) was 0.5 µg/mL and the plasma gallium concentration ([4]; dog, 0.5 hrs) was 1.25 µg/mL. The plasma gallium concentration ([4]; dog, 1 hr) was 1.37 µg/mL, the plasma gallium concentration ([4]; dog, 2 hrs) was 2.75 µg/mL and the plasma gallium concentration ([4]; dog, 4 hrs) was 2.0 µg/mL. For the same molecule, the plasma gallium concentration ([4]; dog, 24 hrs) was 0.75 µg/mL, the “calcium excretion relative to baseline” value (calcium metabolism; [6]) was “no significant increase in calcium excretion” and the “total serum calcium concentration” value (calcium metabolism; [6]) was “reduced by the gallium infusion”. For the same molecule, the “dose for anti bone-resorptive effects as share of the anticancer dose” value (calcium metabolism; of the anticancer dose) was 25-50%, the urinary calcium excretion (calcium metabolism; patients receiving gallium nitrate) was “decreased urinary calcium excretion” and the calcium balance (calcium metabolism; patients while receiving the drug) was “remained in positive calcium balance”. For the same molecule, the “urine OH--Proline” value (bone turnover; day 8) was 19.0 mg/24 h, the “urine Calcium” value (bone turnover; day 8) was 97 mg/24 h and the “urine Phosphorus” value (bone turnover; day 8) was 419 mg/24 h. The “Urine Volume” value (bone turnover; day 8) was 3225 ml/24 h, the “amount of calcium and hydroxyproline excretion” value (bone turnover; myeloma patient) was “marked decrease” and the bone pain (bone turnover; myeloma patient) was “substantial decrease in bone pain”. The “effect upon the underlying disease” value (bone turnover; myeloma patient) was “no effect upon the underlying disease”, the requirement for narcotics (bone turnover; myeloma patient) was “reduced requirement for narcotics” and the “urine OH--Proline” value (bone turnover; treatment day 1) was 76.0 mg/24 h. The “urine Calcium” value (bone turnover; treatment day 1) was 502 mg/24 h, the “urine Phosphorus” value (bone turnover; treatment day 1) was 567 mg/24 h and the “Urine Volume” value (bone turnover; treatment day 1) was 4365 ml/24 h. For the same molecule, the “urine OH--Proline” value (bone turnover; treatment day 4) was 23.9 mg/24 h, the “urine Calcium” value (bone turnover; treatment day 4) was 239 mg/24 h and the “urine Phosphorus” value (bone turnover; treatment day 4) was 607 mg/24 h. The “Urine Volume” value (bone turnover; treatment day 4) was 3620 ml/24 h, the “duration of intermittent high-dose infusions without serious toxicity” value (kidney) was ≥ 22 months and the anticancer activity (animal and human tumors) was “modest anticancer activity”. For the same molecule, the “steady-state plasma gallium concentration” value [5] was 0.9 to 2.0 µg/mL.
